These results are taken from patent publication US20180327367A1, “MACROCYCLIC BROAD SPECTRUM ANTIBIOTICS” (priority 2015, published 2018).

In brackets after ≈: the same amount, converted by molar mass. Where two headings read alike, the source gives them in different places.

The target of assay [1] is T1, SpsB (Staphylococcus aureus signal peptidase) (Staphylococcus aureus, UniProt P0A070).
T1 construct: This assay uses a suspension of Staphylococcus aureus cells as a source of SpsB instead of recombinant SpsB protein; endogenous in cells; host or cells: S. aureus, USA300 background, overexpressing SpsB (whole-cell suspension from frozen pellets)
As to the kind of experiment: cell-based. Format: biochemical. The note with it: SpsB IC50, whole-cell S. aureus (USA300 background, overexpressing SpsB) as SpsB source; fluorogenic peptide substrate, kinetic read 30 min. Summed up: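 Cleavage of an internally quenched (Dabcyl)βAla-KPAKAAE(Edans) peptide, added as 20 μM solution mixed 1:1 with cells, was followed for 30 min at 340/490 nm. SpsB came from a suspension of SpsB-overexpressing USA300 S. aureus in Tween-80-containing PBS buffer. Slopes plotted against 3-fold compound dilutions gave IC50.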

Assay [2] deals with Methicillin Resistant Staphylococcus aureus strain USA 300, NRS384. Kind of assay: Minimum inhibitory concentration, broth micro-dilution (CLSI), S. aureus. Format: cell-based. The note with it: Staphylococcus aureus, MRSA / NRS 384 / USA300, 22 h, 35° C., 22 hours. A digest of the protocol:
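Colonies grown 20 hours at 35° C were suspended in cation-adjusted Mueller Hinton Broth with 0.002% Tween-80. Cells were then added to 2-fold compound dilutions starting at 4 or 0.5 μg/mL, at OD600 0.0005.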

The test system of assay [3] is Escherichia coli MC4100 harboring the IMP4213 (E. coli IMP). Kind of assay: microbe, parasite or virus in culture. Format: cell-based. The note with it: Escherichia coli, 22 h, read-out: MIC (μg/mL) E. coli IMP, E. coli MC4100 IMP4213, increased outer-membrane permeability; 35° C., 22 hours. Summed up: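 Ten 2-fold dilutions, from 4 μg/mL or from 0.5 μg/mL depending on protocol, are challenged with bacteria at OD600 0.0005 in Tween-80-supplemented cation-adjusted Mueller Hinton Broth. Plates incubate 22 hours at 35° C per CLSI. The E. coli IMP4213 strain has increased outer-membrane permeability.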

The subject of assay [4] is Escherichia coli ATCC 25922. Kind of assay: Minimum inhibitory concentration, broth micro-dilution (CLSI), E. coli. It is filed as cell-based. The following applies: Escherichia coli, ATCC25922, 22 h, 35° C., 22 hours. (In broth dilution the organism is exposed to a series of concentrations in liquid medium.)
The test system of assay [5] is Escherichia coli strain ATCC 25922. As to the kind of experiment: Neutropenic thigh infection model. It is filed as in vivo. The following applies: neutropenic CD-1 mice, E. coli ATCC 25922, infusion 23 hours, 24 hours post infection, FIG. 1. Here is the method: The ability of a compound to inhibit an infection of a bacterial pathogen can be measured using a murine neutropenic thigh infection model. The reduction of bacterial burden is a measure of antibacterial activity in vivo.
Jugular vein cannulated CD-1 mice were subjected to induced neutropenia (<100 cells/mm^3) by injecting 150 mg/kg and 100 mg/kg cyclophosphamide at day −5 and day −2 respectively. At day −1, saline was infused at […] for 12 hours using Harvard Apparatus PHD 2000 Infusion pumps. At day 0, mice were infected in the thigh muscle with 1×10^5 CFU/50 μL of Escherichia coli strain ATCC 25922. […]
At 24 hours post infection, bacterial burden in the thigh muscle was determined by plating the tissue homogenate in serial dilutions on blood agar plates.

[6] abbreviates: read-out: MIC (μg/mL) S. aureus, MRSA USA 300 NRS384.
[7] abbreviates: read-out: MIC (μg/mL) E. coli, E. coli ATCC 25922.
Setting [8] is: MRSA USA 300 NRS384, read-out: MIC (μg/mL) S. aureus.
Setting [9] is: E. coli ATCC 25922, read-out: MIC (μg/mL) E. coli.

T1 sequence (P0A070 whole entry): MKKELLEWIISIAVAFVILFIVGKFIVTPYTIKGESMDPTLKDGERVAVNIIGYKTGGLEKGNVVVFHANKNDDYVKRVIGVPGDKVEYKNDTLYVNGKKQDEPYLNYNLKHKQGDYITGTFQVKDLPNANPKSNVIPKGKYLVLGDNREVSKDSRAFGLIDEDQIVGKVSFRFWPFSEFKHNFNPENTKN

For orientation: IC50 means the concentration at which inhibition is half-maximal. A high value points to a need for much substance. With `CCCCCCCOc1cc(Cl)c(C(=O)N[C@@H](CCN)C(=O)N(C)[C@@H]2C(=O)N[C@@H](C)C(=O)N[C@H](C(=O)NCC#N)Cc3ccc(OCCN)c(c3)-c3cc2ccc3OCCN)c(Cl)c1` [Compound 290], 1200 pM corresponded to half-maximal inhibition in assay [1] (IC50). Further, the MIC turned out to be 0.063 µg/mL (≈ 0.0681 µM) in assay [2] (setting [6]), 0.012 µg/mL (≈ 0.013 µM) in assay [3] and 0.38 µg/mL (≈ 0.411 µM) in assay [4] (setting [7]).

In assay [1], `CCCCc1ccc(-c2ccc(C(=O)N[C@@H](CCCN)C(=O)N(C)[C@@H]3C(=O)N[C@@H](C)C(=O)N[C@H](C(=O)NCC#N)Cc4ccc(OCCN)c(c4)-c4cc3ccc4OCCN)cc2)cc1` [Compound 135] displayed an IC50 of 540 pM. The “bacterial burden in the thigh muscle” value in assay [5] is “dose-dependent reduction in bacterial burden”. Besides, the MIC was 0.052 µg/mL (≈ 0.0586 µM) in assay [2] (setting [8]), 0.023 µg/mL (≈ 0.0259 µM) in assay [3] and 0.22 µg/mL (≈ 0.248 µM) in assay [4] (setting [9]).

In the case of `Cc1cc(-c2cnc(CC(C)C)cn2)ccc1C(=O)N[C@@H](CCN)C(=O)N(C)[C@@H]1C(=O)N[C@@H](C)C(=O)N[C@H](C(=O)NCC#N)Cc2ccc(OCCN)c(c2)-c2cc1ccc2OCCN` [Compound 178], in assay [1], the IC50 turned out to be 900 pM. Besides, the MIC in assay [2] (setting [8]) came to 0.25 µg/mL (≈ 0.281 µM); in assay [3] it was 0.039 µg/mL (≈ 0.0438 µM); in assay [4] (setting [9]), 1.5 µg/mL (≈ 1.69 µM).

`CCc1cnc(-c2ccc(C(=O)N[C@@H](CCN)C(=O)N(C)[C@@H]3C(=O)N[C@@H](C)C(=O)N[C@H](C(=O)NCC#N)Cc4ccc(OCCN)c(c4)-c4cc3ccc4OCCN)c(C)c2)nc1` [Compound 176] had an IC50 in assay [1] of 2600 pM. Besides, the MIC amounted to 1 µg/mL (≈ 1.16 µM) in assay [2] (setting [8]), 0.13 µg/mL (≈ 0.151 µM) in assay [3] and 2 µg/mL (≈ 2.32 µM) in assay [4] (setting [9]).

`CCCCCCCCCNC(=O)CCC(=O)N[C@@H](CCN)C(=O)N(C)[C@@H]1C(=O)N[C@@H](C)C(=O)N[C@H](C(=O)NCC#N)Cc2ccc(OCCN)c(c2)-c2cc1ccc2OCCN` [Compound 369]: it took 470 pM to reach half-maximal inhibition in assay [1] (IC50). Besides, the figures for the MIC in assay [2] (setting [8]), in assay [3] and in assay [4] (setting [9]) were 0.063 µg/mL (≈ 0.073 µM), 0.063 µg/mL (≈ 0.073 µM) and 4 µg/mL (≈ 4.63 µM), respectively.

Compound `Cc1cc(C2CC2)ccc1C(=O)N[C@@H](CCN)C(=O)N(C)[C@@H]1C(=O)N[C@@H](C)C(=O)N[C@H](C(=O)NCC#N)Cc2ccc(OCCN)c(c2)-c2cc1ccc2OCCN` [Compound 216] displayed a concentration for half-maximal inhibition (IC50) in assay [1] of 3300 pM. The MIC is 1 µg/mL (≈ 1.26 µM) in assay [2] (setting [8]), 0.25 µg/mL (≈ 0.314 µM) in assay [3] and 8 µg/mL (≈ 10.1 µM) in assay [4] (setting [9]).

As for `C[C@@H]1NC(=O)[C@@H](N(C)C(=O)[C@H](CCCCN)NC(=O)c2ccc(/C=C/c3ccccc3)cc2)c2ccc(OCCN)c(c2)-c2cc(ccc2OCCN)C[C@@H](C(=O)NCC#N)NC1=O` [Compound 110], in assay [1], the IC50 is 960 pM. Moreover, the MIC in assay [2] (setting [6]) turned out to be 0.19 µg/mL (≈ 0.218 µM); in assay [3], 0.063 µg/mL (≈ 0.0722 µM); in assay [4] (setting [7]) it was 8 µg/mL (≈ 9.17 µM).

`C[C@@H]1NC(=O)[C@@H](N(C)C(=O)[C@H](CCCCN)NC(=O)c2ccc(-c3ccc(C(F)(F)F)cc3)cc2)c2ccc(OCCN)c(c2)-c2cc(ccc2OCCN)C[C@@H](C(=O)NCC#N)NC1=O` [Compound 112]: the IC50 in assay [1] was 770 pM. Further, the MIC was 0.13 µg/mL (≈ 0.142 µM) in assay [2] (setting [6]), 0.13 µg/mL (≈ 0.142 µM) in assay [3] and 8 µg/mL (≈ 8.75 µM) in assay [4] (setting [7]).

`CCCCCCCCCCCNC(=O)N[C@@H](CCN)C(=O)N(C)[C@@H]1C(=O)N[C@@H](C)C(=O)N[C@H](C(=O)NCC#N)Cc2ccc(OCCN)c(c2)-c2cc1ccc2OCCN` [Compound 403]: the IC50 in assay [1] was less than 500 pM. Moreover, the MIC in assay [2] (setting [8]) turned out to be 0.029 µg/mL (≈ 0.0347 µM); in assay [3] it was 0.023 µg/mL (≈ 0.0275 µM); in assay [4] (setting [9]), 1.3 µg/mL (≈ 1.56 µM).

Compound `CCCCCCCCCCCCCC(=O)N[C@@H](CCN)C(=O)N(C)[C@@H]1C(=O)N[C@@H](C)C(=O)N[C@H](C(=O)NCC#N)Cc2ccc(OCCN)c(c2)-c2cc1ccc2OCC` [Compound 330] gave an IC50 in assay [1] of 1000 pM. Besides, the MIC in assay [2] (setting [8]) amounted to 0.25 µg/mL (≈ 0.3 µM); in assay [3], 0.063 µg/mL (≈ 0.0756 µM); in assay [4] (setting [9]), 1 µg/mL (≈ 1.2 µM).

Compound `CCCCCCCCCCCC(=O)N[C@@H](C[C@@H]1CCCN1)C(=O)N(C)[C@@H]1C(=O)N[C@@H](C)C(=O)N[C@H](C(=O)NCC#N)Cc2ccc(OCCN)c(c2)-c2cc1ccc2OCCN` [Compound 484] registered an IC50 in assay [1] of 1000 pM. Besides, the MIC turned out to be 0.063 µg/mL (≈ 0.0732 µM) in assay [2] (setting [8]), 0.063 µg/mL (≈ 0.0732 µM) in assay [3] and 8 µg/mL (≈ 9.3 µM) in assay [4] (setting [9]).

In assay [1], `CCCCCCCCCCCC(=O)N[C@@H](CO)C(=O)N[C@@H](CCN)C(=O)N(C)[C@@H]1C(=O)N[C@@H](C)C(=O)N[C@H](C(=O)NCC#N)Cc2ccc(OCCN)c(c2)-c2cc1ccc2OCCN` [Compound 384] displayed an IC50 of 1200 pM. Also, the MIC is 0.012 µg/mL (≈ 0.0132 µM) in assay [2] (setting [6]), 0.031 µg/mL (≈ 0.0342 µM) in assay [3] and 3 µg/mL (≈ 3.31 µM) in assay [4] (setting [7]).

`C[C@@H]1NC(=O)[C@@H](N(C)C(=O)CCNCc2ccc(-c3ccc(Cl)cc3)cc2)c2ccc(OCCN)c(c2)-c2cc(ccc2OCCN)C[C@@H](C(=O)NCC#N)NC1=O` [Compound 461] yielded an IC50 in assay [1] of 740 pM. The MIC in assay [2] (setting [8]) was 0.063 µg/mL (≈ 0.0778 µM); in assay [3], 4 µg/mL (≈ 4.94 µM); in assay [4] (setting [9]), greater than 64 µg/mL.
